Experiment: gradient 5% acetonitrile 3 min, to 50% in 2 min, to 85% in 15 min, held 3 min, 100 µL/min
Conditions: column: Zorbax Extend-C18 2.1 x 50 mm; eluents: water / acetonitrile, 0.1% formic acid
Procedure, shortened: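 Retention times of pure standards were taken from adduct peaks that were selected by computer and manually inspected. Over 3 months, mixtures of ~100 molecules were run by HPLC–quadrupole time-of-flight mass spectrometry in positive and negative ionization mode. The Zorbax Extend-C18 column (2.1 × 50 mm, 1.8 μm) ran at 100 μL/min in water and acetonitrile, each containing 0.1% formic acid, with 40 μL dead volume and 900 μL dwell volume.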

In the case of O=C(C1CCCC1)N1CCN(c2cc(-c3ccc(Cl)cc3)[nH]n2)CC1, the RP-LC retention time is reported as 877 s.
For Cc1cccc(NS(=O)(=O)c2cc3c(s2)CCN(C(=O)C2CC2)C3)c1C, the RP-LC retention time was 858 s.
For CCN(CC)c1ncc(NC(=O)c2ccc(Br)cc2)cc1C(=O)O, the RP-LC retention time was 692 s.
Compound N#CC1(C(=O)Nc2ccc(F)c(F)c2)CC1 has an RP-LC retention time of 760 s.
For O=C(CSc1nnc(-c2ccc3c(c2)OCCO3)o1)N1CCN(c2ccccc2)CC1, the RP-LC retention time was 850 s.
With CCC(C)NC(=O)c1cnn(-c2cc(-c3nc(C(C)(C)C)no3)ccn2)c1C (stereo unspecified) the RP-LC retention time was 711 s.
Work on Cc1ccc2nc(N3CCN(C)CC3)c(-c3noc(-c4ccccc4)n3)cc2c1 yielded an RP-LC retention time of 715 s.
Work on Cc1ccc(C)c(-c2cn3ccn(-c4ccc(F)cc4)c(=O)c3n2)c1 yielded an RP-LC retention time of 895 s.
Compound Cc1cccc(NC(=O)Cn2ccc3sccc3c2=O)c1C has an RP-LC retention time of 741 s.
CCc1ccc(OCC(=O)Nc2nnc(C3CC(=O)N(c4ccc(F)cc4)C3)o2)cc1 (stereo unspecified) showed an RP-LC retention time of 849 s.
With N#Cc1ccsc1NC(=O)c1cccc(Oc2ccccc2)c1 the RP-LC retention time was 988 s.
O=C(NCCCc1ccccc1)C1CCCN(c2nc3ccsc3c(=O)n2-c2ccc(F)cc2)C1 (stereo unspecified) showed an RP-LC retention time of 951 s.
In the case of CCCCNC(=O)C1CCN(c2nc3ccc(-c4cncnc4)nc3s2)CC1, the RP-LC retention time is reported as 788 s.
Cc1noc2nc(CCC(=O)NCCCN3CCc4ccccc4C3)nc(N3CCCCC3)c12 showed an RP-LC retention time of 670 s.
In the case of Cn1nnnc1SCC(=O)Nc1nc(-c2ccccc2)c(-c2ccccc2)o1, the RP-LC retention time is reported as 888 s.
Compound CS(=O)(=O)N1CCC(C(=O)N2CCC(COCc3ccccc3)CC2)CC1 has an RP-LC retention time of 772 s.
Compound O=C(COc1ccccc1)Nc1nnc(C2=COCCO2)o1 has an RP-LC retention time of 651 s.
Compound CCOc1ccc(C2NC(=O)NC(C)=C2C(=O)OC2CCCC2)cc1OC (stereo unspecified) has an RP-LC retention time of 770 s.
With COc1ccc(Cn2cc(S(=O)(=O)N3CCCC3)ccc2=O)cc1 the RP-LC retention time was 796 s.
Compound CCc1cc(C(=O)Nc2cc(OC)ccc2OC)nc2cc(-c3ccco3)nn12 has an RP-LC retention time of 1260 s.
For COc1cc(OC)c(NC(=O)N2c3ccccc3CC2c2nc(C3CC3)no2)cc1Cl (stereo unspecified), the RP-LC retention time was 1120 s.
COc1ccc(CC(=O)N2CCCC2c2nc(-c3ccc(OC)c(OC)c3)no2)cc1OC (stereo unspecified) gave an RP-LC retention time of 801 s.
Compound CCc1nc2cc(-c3noc(C4CC(=O)N(c5ccc(C)cc5)C4)n3)ccc2o1 (stereo unspecified) has an RP-LC retention time of 987 s.
COC(=O)c1ccc2c(=O)n(-c3ccc4c(c3)OCO4)c(N3CCC(C)CC3)nc2c1 gave an RP-LC retention time of 1150 s.
With COCC(=O)NC1CCC12CCN(C(=O)c1ccoc1)CC2 (stereo unspecified) the RP-LC retention time was 643 s.
Compound CN1C2CCC1CC(OC(=O)[C@H](CO)c1ccccc1)C2 (stereo partly specified) has an RP-LC retention time of 667 s.
In the case of COc1ccccc1CCC(=O)Nc1cc(-c2cccnc2)no1, the RP-LC retention time is reported as 781 s.
Cc1ccc2[nH]cc(CCNC(=O)CS(=O)Cc3cnn(-c4ccccc4)c3-n3cccc3)c2c1 (stereo unspecified) showed an RP-LC retention time of 875 s.
Work on CCCn1ccc2oc(C)c(C(=O)NCc3cccc(Br)c3)c2c1=O yielded an RP-LC retention time of 1130 s.
COc1ccc2c(c1OC)C(=O)O[C@@H]2[C@H]1c2cc3c(cc2CCN1C)OCO3 showed an RP-LC retention time of 660 s.
Work on O=C(NCCCc1ccccc1)C1CCCN(c2nccnc2Oc2ccccc2)C1 (stereo unspecified) yielded an RP-LC retention time of 1020 s.
In the case of O=S(=O)(NCC(c1ccco1)N1CCN(c2ccccc2F)CC1)c1cccs1 (stereo unspecified), the RP-LC retention time is reported as 672 s.
In the case of COc1ccccc1OCCC1CCN(S(=O)(=O)c2ccc3c(c2)C(C)(C)C(=O)N3)C1 (stereo unspecified), the RP-LC retention time is reported as 902 s.
In the case of CCN1CCC(N(Cc2cccs2)C(=O)Nc2ccc(OC)c(OC)c2)CC1, the RP-LC retention time is reported as 604 s.
With COc1cccc(C(=O)NCCCc2ccc(N(C)C)cc2)c1OC the RP-LC retention time was 574 s.
Cc1ccc(C)c(NC(=O)N2CCC(N3CCN(Cc4cccc(F)c4)C(=O)C3=O)CC2)c1 showed an RP-LC retention time of 767 s.
Work on O=C(CN1CCCCC1c1nc(-c2cccs2)no1)NCc1cccs1 (stereo unspecified) yielded an RP-LC retention time of 996 s.
Work on Cn1ncc2c3ccccc3n(CCCC(=O)NCc3cccs3)c2c1=O yielded an RP-LC retention time of 817 s.
Cc1ccc(-c2ccc(N3CCCC(C(=O)N4CCCC4)C3)nn2)cc1 (stereo unspecified) showed an RP-LC retention time of 647 s.
CC1(C)CC(=O)c2c(nc(N3CCN(c4ncccn4)CC3)nc2Nc2ccccc2)C1 showed an RP-LC retention time of 1330 s.
With O=C(Cn1ccc2ccccc21)NCCCC(=O)Nc1cccc2cccnc12 the RP-LC retention time was 786 s.
With Cc1ccc2c(Nc3ccc(C(C)C)cc3)c(C(=O)N3CCC(C)CC3)cnc2n1 the RP-LC retention time was 737 s.
COC(=O)c1ccc(NS(=O)(=O)c2ccc(-c3c(C)noc3C)cc2)cc1 showed an RP-LC retention time of 866 s.
With Cn1cnnc1SCCNC(=O)C1CN(c2nc3ccccc3s2)C1 the RP-LC retention time was 573 s.
Compound CCc1nc2ccccc2c(=O)n1Cc1noc(-c2ccc(OC)cc2OC)n1 has an RP-LC retention time of 918 s.
For CCc1cc(=O)n(CC(=O)N2CCN(c3ccc(OC)cc3)CC2)c(N2CCOCC2)n1, the RP-LC retention time was 668 s.
Work on COCCN1CCC2(CC1)CN(Cc1ccc(Cl)c(F)c1)Cc1ccccc1O2 yielded an RP-LC retention time of 751 s.
In the case of CN1C(=O)c2cccnc2Sc2cc(NC(=O)Cc3ccc(F)cc3)ccc21, the RP-LC retention time is reported as 834 s.
Compound CC(C)CC(=O)Nc1n[nH]c2c1CN(C(=O)C1CCN(C)CC1)C2(C)C has an RP-LC retention time of 605 s.
With Clc1cc(Cl)cc(-c2ccc(CNCc3ccco3)o2)c1 the RP-LC retention time was 784 s.
Work on COc1ccc(S(=O)(=O)CC(=O)Nc2nnc(-c3cc(C)oc3C)o2)cc1 yielded an RP-LC retention time of 721 s.
Work on Fc1ccc(Br)cc1-c1nc2ccc(Cl)cn2c1Nc1ccc2c(c1)OCCO2 yielded an RP-LC retention time of 929 s.
For Cc1cc(C2CCCN2C(=O)Nc2ccc(C)c(Cl)c2)on1 (stereo unspecified), the RP-LC retention time was 893 s.
Work on CN(C)CCCOc1nn(Cc2ccccc2)c2ccccc12 yielded an RP-LC retention time of 750 s.
CS(=O)(=O)c1ccc(C(=O)Nc2ccc(Cl)c(-c3ccccn3)c2)c(Cl)c1 showed an RP-LC retention time of 891 s.
CCN(CC)c1nc(C(=O)N2CCN(c3ccccn3)CC2)nc2nc(C)cc(C)c12 showed an RP-LC retention time of 570 s.
Compound c1ccc(-n2nnc(-c3noc(-c4cccnc4)n3)c2-c2ccncc2)cc1 has an RP-LC retention time of 737 s.
Compound Cc1nccn1CC(=O)N1C[C@@H](C)[C@H](c2nc(-c3ccncc3)no2)C1 has an RP-LC retention time of 569 s.
Work on Cc1ccc(C(=O)Nc2nccnc2C(=O)NC(C)c2ccc(F)cc2)cc1 (stereo unspecified) yielded an RP-LC retention time of 1060 s.
Cc1c(C(=O)NCC2CC2)cnn1-c1ccc(-c2nc(C3CC3)no2)cn1 showed an RP-LC retention time of 810 s.
Compound Cc1nc(-c2ccc(F)cc2)sc1C(=O)N(C)C has an RP-LC retention time of 767 s.
Cc1cnc(C2CC2)n1CCNS(=O)(=O)Cc1ccccc1 gave an RP-LC retention time of 634 s.
With O=C(CC(F)(F)F)N1CCCC(CCc2nnc(C3CCOCC3)o2)C1 (stereo unspecified) the RP-LC retention time was 682 s.
Work on Cc1nn(Cc2nc(-c3ccc(NC(=O)c4ccco4)cc3)oc2C)c(C)c1C yielded an RP-LC retention time of 828 s.
For CCCn1cc(S(=O)(=O)NCc2cccc(F)c2)c2cccnc21, the RP-LC retention time was 936 s.
Compound Cc1ccc(CNC(=O)c2cc(NC(=O)C(C)C)cc3nc(C)ccc23)cc1 has an RP-LC retention time of 680 s.

— the METLIN SMRT retention time set (Domingo-Almenara et al. 2019)
